Test results reported in patent US20240239863A1, “GIP RECEPTOR AGONIST AND USE THEREOF” (HANGZHOU ZHONGMEIHUADONG PHARMACEUTICAL CO., LTD., priority 2022, published 2024).
Non-standard residues stand in square brackets, D forms with d. Residues, ends and D or L forms follow the SMILES beside them. Aib = CC(C)(N)C(=O)O

Biological target: hGLP-1R (Homo sapiens, UniProt P43220)
Assay: Cell agonistic activity at GLP-1 receptor (Example 7)
Format: cell-based

Sequence of hGLP-1R (P43220 24-463): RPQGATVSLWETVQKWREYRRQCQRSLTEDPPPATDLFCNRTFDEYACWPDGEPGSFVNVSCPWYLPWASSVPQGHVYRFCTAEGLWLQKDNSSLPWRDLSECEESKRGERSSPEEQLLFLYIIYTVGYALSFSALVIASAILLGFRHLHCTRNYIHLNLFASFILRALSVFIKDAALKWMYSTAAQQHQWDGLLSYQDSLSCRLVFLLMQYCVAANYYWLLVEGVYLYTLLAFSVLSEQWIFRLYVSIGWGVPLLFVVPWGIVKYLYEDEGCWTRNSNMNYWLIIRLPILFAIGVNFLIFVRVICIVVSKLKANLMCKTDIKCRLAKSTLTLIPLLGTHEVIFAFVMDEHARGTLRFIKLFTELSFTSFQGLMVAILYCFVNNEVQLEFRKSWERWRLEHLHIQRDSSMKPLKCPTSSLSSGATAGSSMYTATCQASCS

CC[C@H](C)[C@H](NC(=O)[C@H](CO)NC(=O)[C@H](Cc1ccc(O)cc1)NC(=O)[C@H](CC(=O)O)NC(=O)[C@H](CO)NC(=O)[C@@H](NC(=O)[C@H](Cc1ccccc1)NC(=O)[C@@H](NC(=O)CNC(=O)[C@H](CCC(=O)O)NC(=O)C(C)(C)NC(=O)[C@@H](N)Cc1ccc(O)cc1)[C@@H](C)O)[C@@H](C)CC)C(=O)N[C@@H](C)C(=O)N[C@@H](CC(C)C)C(=O)N[C@@H](CC(=O)O)C(=O)N[C@@H](CCCNC(=N)N)C(=O)N[C@H](C(=O)N[C@@H](Cc1c[nH]cn1)C(=O)N[C@@H](CCC(N)=O)C(=O)N[C@@H](CCC(N)=O)C(=O)N[C@@H](CC(=O)O)C(=O)N[C@@H](Cc1ccccc1)C(=O)N[C@H](C(=O)N[C@@H](CCCCN)C(=O)N[C@@H](Cc1c[nH]c2ccccc12)C(=O)N[C@@H](CC(C)C)C(=O)N[C@@H](CC(C)C)C(=O)N[C@@H](C)C(=O)N[C@@H](CCC(N)=O)C(=O)N[C@@H](CCCNC(=N)N)C(=O)NCC(=O)O)C(C)C)[C@@H](C)CC [Sequence 13] (H-Y[Aib]EGTFISDYSIALDRIHQQDFVKWLLAQRG-OH; N-terminus and C-terminus assumed)
EC50: > 100 pM

CC[C@H](C)[C@H](NC(=O)[C@H](CO)NC(=O)[C@H](Cc1ccc(O)cc1)NC(=O)[C@H](CC(=O)O)NC(=O)[C@H](CO)NC(=O)[C@@H](NC(=O)[C@H](Cc1ccccc1)NC(=O)[C@@H](NC(=O)CNC(=O)[C@H](CCC(=O)O)NC(=O)C(C)(C)NC(=O)[C@@H](N)Cc1ccc(O)cc1)[C@@H](C)O)[C@@H](C)CC)C(=O)N[C@@H](C)C(=O)N[C@@H](CC(C)C)C(=O)N[C@@H](CC(=O)O)C(=O)N[C@@H](CCCCN)C(=O)N[C@@H](CC(C)C)C(=O)N[C@@H](Cc1c[nH]cn1)C(=O)N[C@@H](CCC(N)=O)C(=O)N[C@@H](CCC(=O)O)C(=O)N[C@@H](CC(=O)O)C(=O)N[C@@H](Cc1ccccc1)C(=O)N[C@H](C(=O)N[C@@H](CC(N)=O)C(=O)N[C@@H](Cc1c[nH]c2ccccc12)C(=O)N[C@@H](CC(C)C)C(=O)N[C@@H](CC(C)C)C(=O)N[C@@H](C)C(=O)N[C@@H](CCC(N)=O)C(=O)N[C@@H](CCCNC(=N)N)C(=O)NCC(=O)O)C(C)C [Sequence 10] (H-Y[Aib]EGTFISDYSIALDKLHQEDFVNWLLAQRG-OH; N-terminus and C-terminus assumed)
EC50: > 100 pM

CC[C@H](C)[C@H](NC(=O)[C@H](CO)NC(=O)[C@H](Cc1ccc(O)cc1)NC(=O)[C@H](CC(=O)O)NC(=O)[C@H](CO)NC(=O)[C@@H](NC(=O)[C@H](Cc1ccccc1)NC(=O)[C@@H](NC(=O)CNC(=O)[C@H](CCC(=O)O)NC(=O)C(C)(C)NC(=O)[C@@H](N)Cc1ccc(O)cc1)[C@@H](C)O)[C@@H](C)CC)C(=O)N[C@@H](C)C(=O)N[C@@H](CC(C)C)C(=O)N[C@@H](CC(=O)O)C(=O)N[C@@H](CCCNC(=N)N)C(=O)N[C@@H](CC(C)C)C(=O)N[C@@H](Cc1c[nH]cn1)C(=O)N[C@@H](CCC(N)=O)C(=O)N[C@@H](CCC(=O)O)C(=O)N[C@@H](CC(=O)O)C(=O)N[C@@H](Cc1ccccc1)C(=O)N[C@H](C(=O)N[C@@H](CCCCN)C(=O)N[C@@H](Cc1c[nH]c2ccccc12)C(=O)N[C@@H](CC(C)C)C(=O)N[C@@H](CC(C)C)C(=O)N[C@@H](C)C(=O)N[C@@H](CCC(N)=O)C(=O)N[C@@H](CCCNC(=N)N)C(=O)NCC(=O)O)C(C)C [Sequence 15] (H-Y[Aib]EGTFISDYSIALDRLHQEDFVKWLLAQRG-OH; N-terminus and C-terminus assumed)
EC50: > 100 pM

CC[C@H](C)[C@H](NC(=O)[C@H](CO)NC(=O)[C@H](Cc1ccc(O)cc1)NC(=O)[C@H](CC(=O)O)NC(=O)[C@H](CO)NC(=O)[C@@H](NC(=O)[C@H](Cc1ccccc1)NC(=O)[C@@H](NC(=O)CNC(=O)[C@H](CCC(=O)O)NC(=O)C(C)(C)NC(=O)[C@@H](N)Cc1ccc(O)cc1)[C@@H](C)O)[C@@H](C)CC)C(=O)N[C@@H](C)C(=O)N[C@@H](CC(C)C)C(=O)N[C@@H](CC(=O)O)C(=O)N[C@@H](CCC(=O)O)C(=O)N[C@H](C(=O)N[C@@H](Cc1c[nH]cn1)C(=O)N[C@@H](CCC(N)=O)C(=O)N[C@@H](CCCCN)C(=O)N[C@@H](CC(=O)O)C(=O)N[C@@H](Cc1ccccc1)C(=O)N[C@H](C(=O)N[C@@H](CCCCN)C(=O)N[C@@H](Cc1c[nH]c2ccccc12)C(=O)N[C@@H](CC(C)C)C(=O)N[C@@H](CC(C)C)C(=O)N[C@@H](C)C(=O)N[C@@H](CCC(N)=O)C(=O)N[C@@H](CCCCN)C(=O)NCC(=O)O)C(C)C)[C@@H](C)CC [Sequence 4] (H-Y[Aib]EGTFISDYSIALDEIHQKDFVKWLLAQKG-OH; N-terminus and C-terminus assumed)
EC50: > 100 pM

CC[C@H](C)[C@H](NC(=O)[C@H](CO)NC(=O)[C@H](Cc1ccc(O)cc1)NC(=O)[C@H](CC(=O)O)NC(=O)[C@H](CO)NC(=O)[C@@H](NC(=O)[C@H](Cc1ccccc1)NC(=O)[C@@H](NC(=O)CNC(=O)[C@H](CCC(=O)O)NC(=O)C(C)(C)NC(=O)[C@@H](N)Cc1ccc(O)cc1)[C@@H](C)O)[C@@H](C)CC)C(=O)N[C@@H](C)C(=O)N[C@@H](CC(C)C)C(=O)N[C@@H](CC(=O)O)C(=O)N[C@@H](CCCNC(=N)N)C(=O)N[C@@H](CC(C)C)C(=O)N[C@@H](Cc1c[nH]cn1)C(=O)N[C@@H](CCC(N)=O)C(=O)N[C@@H](CCC(=O)O)C(=O)N[C@@H](CC(=O)O)C(=O)N[C@@H](Cc1ccccc1)C(=O)N[C@H](C(=O)N[C@@H](CC(N)=O)C(=O)N[C@@H](Cc1c[nH]c2ccccc12)C(=O)N[C@@H](CC(C)C)C(=O)N[C@@H](CC(C)C)C(=O)N[C@@H](C)C(=O)N[C@@H](CCC(N)=O)C(=O)N[C@@H](CCCCN)C(=O)NCC(=O)O)C(C)C [Sequence 16] (H-Y[Aib]EGTFISDYSIALDRLHQEDFVNWLLAQKG-OH; N-terminus and C-terminus assumed)
EC50: > 100 pM

CC[C@H](C)[C@H](NC(=O)[C@H](CO)NC(=O)[C@H](Cc1ccc(O)cc1)NC(=O)[C@H](CC(=O)O)NC(=O)[C@H](CO)NC(=O)[C@@H](NC(=O)[C@H](Cc1ccccc1)NC(=O)[C@@H](NC(=O)CNC(=O)[C@H](CCC(=O)O)NC(=O)C(C)(C)NC(=O)[C@@H](N)Cc1ccc(O)cc1)[C@@H](C)O)[C@@H](C)CC)C(=O)N[C@@H](C)C(=O)N[C@@H](CC(C)C)C(=O)N[C@@H](CC(=O)O)C(=O)N[C@@H](CCC(=O)O)C(=O)N[C@H](C(=O)N[C@@H](Cc1c[nH]cn1)C(=O)N[C@@H](CCC(N)=O)C(=O)N[C@@H](CCCCN)C(=O)N[C@@H](CC(=O)O)C(=O)N[C@@H](Cc1ccccc1)C(=O)N[C@H](C(=O)N[C@@H](CC(N)=O)C(=O)N[C@@H](Cc1c[nH]c2ccccc12)C(=O)N[C@@H](CC(C)C)C(=O)N[C@@H](CC(C)C)C(=O)N[C@@H](C)C(=O)N[C@@H](CCC(N)=O)C(=O)N[C@@H](CCCNC(=N)N)C(=O)NCC(=O)O)C(C)C)[C@@H](C)CC [Sequence 5] (H-Y[Aib]EGTFISDYSIALDEIHQKDFVNWLLAQRG-OH; N-terminus and C-terminus assumed)
EC50: > 100 pM
